Here are results for 3 compounds from paper PMC8067721 (Pharmaceutics, 2021).

The subject of one experiment is HT-29 cells. Also on record: method as in PMID 9023294. The following applies: cited from earlier work.
Experiment [1] deals with NT receptors (NTRS1, NTRS2, NTRS3) on HT-29 cells. Description: In vitro specific binding / competition assay with all NT receptors blocked. Details: species or system human. The conditions noted are these: antagonists applied together: 70 nM NTRC 824, 30 nM SR 48692, 10 nM SR 142948, […]; uptake profile almost linear.
Description: In order to evaluate the specific binding due to the exclusive interaction of the peptide with its receptors, a competition assay was performed. This assay in which all NT receptors are blocked before incubating the labelled peptide is intended to highlight non-specific binding of NT to the cells. […] For this assessment, three different NT receptors antagonists were used, each having a preferential increased affinity for one of the receptors, allowing the blocking of all NTRs at the same time:
Afterwards, the medium containing unbound antagonists was removed and the cells were washed with 2 mL of fresh DMEM medium.
Another experiment deals with NTRS2. Details: method as in PMID 25157640. The following applies: cited from earlier work.

Turning to “2-[[5-(2,6-dimethoxyphenyl)-1-(4-(N-(3-dimethylaminopropyl)-N-methylcabamoyl)-2-isopropylphenyl)-1H-pyrazole-3-carbonyl]amino]adamantane-2-carboxylic acid [SR 142948]”, the “inhibition of [^125I]ITyr^3-NT specific binding to HT-29 cells” value in the experiment with HT-29 cells is on record as “completely inhibits”. The “effect of antagonists on ^68Ga-DOTA-NT binding to colon HT-29 tumour cells” value (shortened to “effect of antagonists”) in experiment [1] is “inhibit”. As for `Cc1ccc(S(=O)(=O)Nc2ccc3c(c2)c(C(=O)C(F)(F)F)cn3CC(=O)N[C@@H](CC(C)C)C(=O)O)cc1` [NTRC 824, N-[2-[5-[[(4-Methylphenyl)sulfonyl]amino]-3-(trifluoroacetyl)-1H-indol-1-yl]acetyl]-L-leucine], in the experiment with NTRS2, the “selectivity for NTRS2 over NTRS1” value is 150 fold. Further, the “effect of antagonists” value in experiment [1] is listed as “inhibit”. As for `COc1cccc(OC)c1-c1cc(C(=O)NC2(C(=O)O)C3CC4CC(C3)CC2C4)nn1-c1ccnc2cc(Cl)ccc12` (centres unmarked) [SR 48692, 2-[[1-(7-chloroquinolin-4-yl)-5-(2,6-dimethoxyphenyl)-1H-pyrazol-3-carbonyl]amino] adamantane-2-carboxylic acid], the “effect of antagonists” value in experiment [1] was “inhibit”.
